Earlier results as cited in patent US5714342A, “Compositions for the detection of protease in biological samples and methods of use therefo” (OncoImmunin, Inc., priority 1995, dated 1998).

Conditions: literature (Forster and Konig 1957; Arbeloa and Ojeda 1982); cited from earlier work

Compound | concentration at which ground-state dimerization of free dye in solution was observed
O=C1OC2(c3ccccc31)c1cc(Br)c(O)c(Br)c1Oc1c2cc(Br)c(O)c1Br [Eosin] | higher than 2.8×10^-2 M
CCN(CC)c1ccc2c(-c3ccccc3C(=O)O)c3ccc(=[N+](CC)CC)cc-3oc2c1 [Rhodamine B] | higher than 6×10^-4 M
O=C1OC2(c3ccc(O)cc3Oc3cc(O)ccc32)c2ccccc21 [fluorescein] | > 0.74 M
